Read-outs that look alike come from different tables or passages of the source. Numbered stars: 1 amine (or outer) side, 2 acyl side, 3 side chain; on linkers, the order of the positions; unused ones are H or OH. Bridge positions count the residues as written; N and C are the ends. Square brackets hold non-standard residues; d marks the D form. Peptide text beside a SMILES is read from it. * marks the point of attachment. ξ: configuration not given here. pTerphenylCO(4''-OnC5H11) = CCCCCOc1ccc(-c2ccc(-c3ccc(C(=O)*)cc3)cc2)cc1; Pro(3S-OH,4S-Me) = C[C@H]1CN[C@H](C(=O)O)[C@H]1O; hTyr(3R-OH) = N[C@H](C(=O)O)[C@H](O)Cc1ccc(O)cc1; X1 = CN1CCC(NC[C@H](N[*:1])C(=O)[*:2])CC1; Hyp = O=C(O)[C@@H]1C[C@@H](O)CN1; Thr(3ξ) = CC(O)[C@H](N)C(=O)O; Orn = NCCC[C@H](N)C(=O)O; dDap = NC[C@@H](N)C(=O)O; Dap = NC[C@H](N)C(=O)O
Experiments:
[1] = test system: Cryptococcus neoformans; details: in vitro
[2] = test system: C. parapsilosis; details: in vitro
[3] = test system: C. albicans; details: in vitro
[4] = test system: A. fumigatus; details: in vitro
[5] = test system: Histoplasma capsulatum; details: in vitro
[6] = the molecule shown is the open-chain precursor, amide bond, H2/Pd-C (EtOH/AcOH), then Et3N, Et2O, 2 steps

For `C[C@@H]1[C@H](O)[C@@H](C)/C=C/C=C/C=C/C=C/C=C/C=C/C=C/[C@H](O[C@@H]2O[C@H](C)[C@@H](O)[C@H](N)[C@@H]2O)C[C@@H]2O[C@](O)(C[C@@H](O)C[C@@H](O)[C@H](O)CC[C@@H](O)C[C@@H](O)CC(=O)O[C@H]1C)C[C@H](O)[C@H]2C(=O)O` [Ampho B, Amphotericin B, reference compound], the “Minimal Inhibitory Concentration MIC Cryptococcus neoformans” value [1] was 0.039 µg/mL, the “Minimal Inhibitory Concentration MIC C. parapsilosis” value [2] was 0.038 µg/mL and the “Minimal Inhibitory Concentration MIC C. albicans” value [3] was 0.078 µg/mL. The “Minimal Inhibitory Concentration MIC A. fumigatus” value [4] was 0.312 µg/mL and the “Minimal Inhibitory Concentration MIC Histoplasma capsulatum” value [5] was 0.039 µg/mL.
In the case of `CCCCCOc1ccc(-c2ccc(-c3ccc(C(=O)N[C@H]4CCCNC(=O)[C@@H]5[C@@H](O)[C@@H](C)CN5C(=O)[C@H](C(C)O)NC(=O)[C@H]([C@H](O)Cc5ccc(O)cc5)NC(=O)[C@@H]5C[C@@H](O)CN5C(=O)[C@H](C(C)C)NC4=O)cc3)cc2)cc1` (stereo partly drawn) [Compound E4-6] ({pTerphenylCO(4''-OnC5H11)}-[Orn]V[Hyp][hTyr(3R-OH)][Thr(3ξ)][Pro(3S-OH,4S-Me)]; lactam 1-C), the “Minimal Inhibitory Concentration MIC C. parapsilosis” value [2] is reported as over 20 µg/mL, the “Minimal Inhibitory Concentration MIC C. albicans” value [3] is reported as 1.25 µg/mL and the “Minimal Inhibitory Concentration MIC A. fumigatus” value [4] is reported as over 20 µg/mL. The “Minimal Inhibitory Concentration MIC Histoplasma capsulatum” value [5] was over 20 µg/mL.
For `CCCCCOc1ccc(-c2ccc(-c3ccc(C(=O)N[C@H]4CCCNC(=O)[C@@H]5[C@@H](O)[C@@H](C)CN5C(=O)[C@H](C(C)O)NC(=O)[C@H]([C@H](O)Cc5ccc(O)cc5)NC(=O)[C@@H]5C[C@@H](O)CN5C(=O)[C@H](Cc5ccc(O)cc5)NC4=O)cc3)cc2)cc1` (stereo partly drawn) [Compound E5-7] ({pTerphenylCO(4''-OnC5H11)}-[Orn]Y[Hyp][hTyr(3R-OH)][Thr(3ξ)][Pro(3S-OH,4S-Me)]; lactam 1-C), the “Minimal Inhibitory Concentration MIC C. parapsilosis” value [2] was over 20 µg/mL, the “Minimal Inhibitory Concentration MIC C. albicans” value [3] was over 20 µg/mL and the “Minimal Inhibitory Concentration MIC A. fumigatus” value [4] was over 20 µg/mL. For the same compound, the “Minimal Inhibitory Concentration MIC Histoplasma capsulatum” value [5] was over 20 µg/mL.
For `CCCCCOc1ccc(-c2ccc(-c3ccc(C(=O)N[C@H]4CNC(=N)NC(=O)[C@@H]5[C@@H](O)[C@@H](C)CN5C(=O)[C@H](C(C)O)NC(=O)[C@H]([C@H](O)Cc5ccc(O)cc5)NC(=O)[C@@H]5C[C@@H](O)CN5C(=O)[C@H](C(C)O)NC4=O)cc3)cc2)cc1` (stereo partly shown) [Compound E6-6], the “Minimal Inhibitory Concentration MIC C. parapsilosis” value [2] was over 20 µg/mL, the “Minimal Inhibitory Concentration MIC C. albicans” value [3] was 0.078 µg/mL and the “Minimal Inhibitory Concentration MIC A. fumigatus” value [4] was over 20 µg/mL. For the same compound, the “Minimal Inhibitory Concentration MIC Histoplasma capsulatum” value [5] was over 20 µg/mL.
For `CCCCCOc1ccc(-c2ccc(-c3ccc(C(=O)N[C@H]4CNC(=O)[C@H](CN)NC(=O)[C@@H]5[C@@H](O)[C@@H](C)CN5C(=O)[C@H](C(C)O)NC(=O)[C@H]([C@H](O)Cc5ccc(O)cc5)NC(=O)[C@@H]5C[C@@H](O)CN5C(=O)[C@H](C(C)O)NC4=O)cc3)cc2)cc1` (stereo partly drawn) [Compound E8-8] ({pTerphenylCO(4''-OnC5H11)}-[Dap][Thr(3ξ)][Hyp][hTyr(3R-OH)][Thr(3ξ)][Pro(3S-OH,4S-Me)][Dap]; lactam 1-C), the “Minimal Inhibitory Concentration MIC Cryptococcus neoformans” value [1] was over 20 µg/mL, the “Minimal Inhibitory Concentration MIC C. parapsilosis” value [2] was 0.625 µg/mL and the “Minimal Inhibitory Concentration MIC C. albicans” value [3] was 0.078 µg/mL. The “Minimal Inhibitory Concentration MIC A. fumigatus” value [4] was 5.0 µg/mL and the “Minimal Inhibitory Concentration MIC Histoplasma capsulatum” value [5] was 0.312 µg/mL.
In the case of `CCCCCOc1ccc(-c2ccc(-c3ccc(C(=O)N[C@H]4CNC(=O)[C@H](CNC5CCN(C)CC5)NC(=O)[C@@H]5[C@@H](O)[C@@H](C)CN5C(=O)[C@H](C(C)O)NC(=O)[C@H]([C@H](O)Cc5ccc(O)cc5)NC(=O)[C@@H]5C[C@@H](O)CN5C(=O)[C@H](C(C)O)NC4=O)cc3)cc2)cc1` (stereo partly drawn) [Compound E8-9] ({pTerphenylCO(4''-OnC5H11)}-[Dap][Thr(3ξ)][Hyp][hTyr(3R-OH)][Thr(3ξ)][Pro(3S-OH,4S-Me)][X1]; lactam 1-C), the “Minimal Inhibitory Concentration MIC Cryptococcus neoformans” value [1] is reported as over 20 µg/mL, the “Minimal Inhibitory Concentration MIC C. parapsilosis” value [2] is reported as 5.0 µg/mL and the “Minimal Inhibitory Concentration MIC C. albicans” value [3] is reported as 0.156 µg/mL. For the same compound, the “Minimal Inhibitory Concentration MIC A. fumigatus” value [4] was 5.0 µg/mL and the “Minimal Inhibitory Concentration MIC Histoplasma capsulatum” value [5] was 0.625 µg/mL.
For `CCCCCOc1ccc(-c2ccc(-c3ccc(C(=O)N[C@H]4CCNNC(=O)[C@@H]5[C@@H](O)[C@@H](C)CN5C(=O)[C@H](C(C)O)NC(=O)[C@H]([C@H](O)Cc5ccc(O)cc5)NC(=O)[C@@H]5C[C@@H](O)CN5C(=O)[C@H](C(C)O)NC4=O)cc3)cc2)cc1` (stereo partly shown) [E2-10(b)], the “Minimal Inhibitory Concentration MIC C. parapsilosis” value [2] was 0.156 µg/mL, the “Minimal Inhibitory Concentration MIC C. albicans” value [3] was 0.01 µg/mL and the “Minimal Inhibitory Concentration MIC A. fumigatus” value [4] was 0.156 µg/mL. The “Minimal Inhibitory Concentration MIC Histoplasma capsulatum” value [5] was 0.156 µg/mL.
With `CCCCCOc1ccc(-c2ccc(-c3ccc(C(=O)N[C@H]4CCN(CC)NC(=O)[C@@H]5[C@@H](O)[C@@H](C)CN5C(=O)[C@H](C(C)O)NC(=O)[C@H]([C@H](O)Cc5ccc(O)cc5)NC(=O)[C@@H]5C[C@@H](O)CN5C(=O)[C@H](C(C)O)NC4=O)cc3)cc2)cc1` (stereo partly shown) [E2-11(b)] the “Minimal Inhibitory Concentration MIC C. parapsilosis” value [2] was 0.156 µg/mL, the “Minimal Inhibitory Concentration MIC C. albicans” value [3] was 0.001 µg/mL and the “Minimal Inhibitory Concentration MIC A. fumigatus” value [4] was 0.312 µg/mL. For the same compound, the “Minimal Inhibitory Concentration MIC Histoplasma capsulatum” value [5] was 0.02 µg/mL.
In the case of `CCCCCOc1ccc(-c2ccc(-c3ccc(C(=O)N[C@H]4CCN(CCC)NC(=O)[C@@H]5[C@@H](O)[C@@H](C)CN5C(=O)[C@H](C(C)O)NC(=O)[C@H]([C@H](O)Cc5ccc(O)cc5)NC(=O)[C@@H]5C[C@@H](O)CN5C(=O)[C@H](C(C)O)NC4=O)cc3)cc2)cc1` (stereo partly shown) [E2-11(c)], the “Minimal Inhibitory Concentration MIC C. parapsilosis” value [2] is reported as 1.25 µg/mL, the “Minimal Inhibitory Concentration MIC C. albicans” value [3] is reported as 0.312 µg/mL and the “Minimal Inhibitory Concentration MIC A. fumigatus” value [4] is reported as 0.156 µg/mL. For the same compound, the “Minimal Inhibitory Concentration MIC Histoplasma capsulatum” value [5] was 0.312 µg/mL.
With `CCCCCOc1ccc(-c2ccc(-c3ccc(C(=O)N[C@@H]4CNC(=O)CNC(=O)[C@@H]5[C@@H](O)[C@@H](C)CN5C(=O)[C@H](C(C)O)NC(=O)[C@H]([C@H](O)Cc5ccc(O)cc5)NC(=O)[C@@H]5C[C@@H](O)CN5C(=O)[C@H](C(C)O)NC4=O)cc3)cc2)cc1` (stereo partly drawn) [E7-6(a)] ({pTerphenylCO(4''-OnC5H11)}-[dDap][Thr(3ξ)][Hyp][hTyr(3R-OH)][Thr(3ξ)][Pro(3S-OH,4S-Me)]G; lactam 1-C) the “Minimal Inhibitory Concentration MIC Cryptococcus neoformans” value [1] was over 20 µg/mL, the “Minimal Inhibitory Concentration MIC C. parapsilosis” value [2] was over 20 µg/mL and the “Minimal Inhibitory Concentration MIC C. albicans” value [3] was over 20 µg/mL. The “Minimal Inhibitory Concentration MIC A. fumigatus” value [4] was over 20 µg/mL and the “Minimal Inhibitory Concentration MIC Histoplasma capsulatum” value [5] was over 20 µg/mL.
In the case of `CCCCCOc1ccc(-c2ccc(-c3ccc(C(=O)N[C@H]4CNC(=O)CNC(=O)[C@@H]5[C@@H](O)[C@@H](C)CN5C(=O)[C@H](C(C)O)NC(=O)[C@H]([C@H](O)Cc5ccc(O)cc5)NC(=O)[C@@H]5C[C@@H](O)CN5C(=O)[C@H](C(C)O)NC4=O)cc3)cc2)cc1` (stereo partly drawn) [E7-6(b)] ({pTerphenylCO(4''-OnC5H11)}-[Dap][Thr(3ξ)][Hyp][hTyr(3R-OH)][Thr(3ξ)][Pro(3S-OH,4S-Me)]G; lactam 1-C), the “Minimal Inhibitory Concentration MIC Cryptococcus neoformans” value [1] is reported as over 20 µg/mL, the “Minimal Inhibitory Concentration MIC C. parapsilosis” value [2] is reported as over 20 µg/mL and the “Minimal Inhibitory Concentration MIC C. albicans” value [3] is reported as 0.312 µg/mL. For the same compound, the “Minimal Inhibitory Concentration MIC A. fumigatus” value [4] was 5.0 µg/mL and the “Minimal Inhibitory Concentration MIC Histoplasma capsulatum” value [5] was 1.25 µg/mL.
For `CCCCCOc1ccc(-c2ccc(-c3ccc(C(=O)NC[C@H]4NC(=O)CNC(=O)[C@@H]5[C@@H](O)[C@@H](C)CN5C(=O)[C@H](C(C)O)NC(=O)[C@H]([C@H](O)Cc5ccc(O)cc5)NC(=O)[C@@H]5C[C@@H](O)CN5C(=O)[C@H](C(C)O)NC4=O)cc3)cc2)cc1` (stereo partly drawn) [E7-14(a)] (cyclo(G[dDap](pTerphenylCO(4''-OnC5H11))[Thr(3ξ)][Hyp][hTyr(3R-OH)][Thr(3ξ)][Pro(3S-OH,4S-Me)])), the “Minimal Inhibitory Concentration MIC Cryptococcus neoformans” value [1] was over 20 µg/mL, the “Minimal Inhibitory Concentration MIC C. parapsilosis” value [2] was over 20 µg/mL and the “Minimal Inhibitory Concentration MIC C. albicans” value [3] was 0.312 µg/mL. The “Minimal Inhibitory Concentration MIC A. fumigatus” value [4] was over 20 µg/mL and the “Minimal Inhibitory Concentration MIC Histoplasma capsulatum” value [5] was 0.312 µg/mL.
For `CCCCCOc1ccc(-c2ccc(-c3ccc(C(=O)NC[C@@H]4NC(=O)CNC(=O)[C@@H]5[C@@H](O)[C@@H](C)CN5C(=O)[C@H](C(C)O)NC(=O)[C@H]([C@H](O)Cc5ccc(O)cc5)NC(=O)[C@@H]5C[C@@H](O)CN5C(=O)[C@H](C(C)O)NC4=O)cc3)cc2)cc1` (stereo partly drawn) [E7-14(b)] (cyclo([Dap](pTerphenylCO(4''-OnC5H11))[Thr(3ξ)][Hyp][hTyr(3R-OH)][Thr(3ξ)][Pro(3S-OH,4S-Me)]G)), the “Minimal Inhibitory Concentration MIC Cryptococcus neoformans” value [1] was over 20 µg/mL, the “Minimal Inhibitory Concentration MIC C. parapsilosis” value [2] was over 20 µg/mL and the “Minimal Inhibitory Concentration MIC C. albicans” value [3] was 0.156 µg/mL. The “Minimal Inhibitory Concentration MIC A. fumigatus” value [4] was over 20 µg/mL and the “Minimal Inhibitory Concentration MIC Histoplasma capsulatum” value [5] was 0.078 µg/mL.
With “Boc-Cys(SO2; S-CH2CH2NH2)-Thr(TBS)-Hyp(TBS)-hTyr(3-OTBS,4'-OTBS)-Thr(TBS)-Pro(3-OTBS,4-Me)-N(Boc)2?” the ring closure, isolated yield ([6]; 22-membered ring, 1.1 mM) was 67%.
With “Boc-Orn-Val-Hyp(TBS)-hTyr(3-OTBS,4'-OTBS)-Thr(TBS)-Pro(3-OTBS,4-Me)-N(Boc)2?” the ring closure, isolated yield ([6]; 21-membered ring, 2.1 mM) was 43%.

From patent US6939946B2, “Ring modified cyclic peptide analogs” (Eli Lilly and Company, priority 1998, dated 2005)
